PubChem BioAssay (NCI)
Where “and” joins values, the source holds several entries; their conditions need not be identical. Equal entries are not always repeated.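 Results reflect a 48-hour exposure of cells in 96-well plates to compound at five concentrations. GI50 is the concentration that inhibits growth by half. TGI: concentration producing complete growth inhibition.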 *1 amine or outer side, *2 acyl side, *3 side chain or, on linkers, in order; H or OH if unused. Where a SMILES comes first, the peptide text is derived from it. Bridges are numbered along the chain shown (N, C = ends). [ ]: non-standard residue; d: D form. ξ: configuration not given here. X4 = CCC(C)C(N[*:1])C(O)CC(=O)O[C@H](C(=O)C(C)C(=O)[*:2])C(C)C; NMeY = CN[C@@H](Cc1ccc(O)cc1)C(=O)O; ξNMeL = CNC(CC(C)C)C(=O)O; ξT = CC(O)C(N)C(=O)O

Legend:
Test in all cases: NCI tumour cell line growth inhibition, 48 h
TK-10 renal = tested on: TK-10 renal
NCI-H460 lung = tested on: NCI-H460 lung
NCI-H522 lung = tested on: NCI-H522 lung
K-562 leukemia = tested on: K-562 leukemia
M14 melanoma = tested on: M14 melanoma
SF-268 CNS = tested on: SF-268 CNS
RPMI-8226 leukemia = tested on: RPMI-8226 leukemia
HCT-116 colon = tested on: HCT-116 colon
A498 renal = tested on: A498 renal
SR leukemia = tested on: SR leukemia

| Structure (SMILES) | GI50 (TK-10 renal) | TGI (TK-10 renal) | GI50 (NCI-H460 lung) | TGI (NCI-H460 lung) | GI50 (NCI-H522 lung) | TGI (NCI-H522 lung) | GI50 (K-562 leukemia) | TGI (K-562 leukemia) | GI50 (M14 melanoma) | TGI (M14 melanoma) | GI50 (SF-268 CNS) | TGI (SF-268 CNS) | GI50 (RPMI-8226 leukemia) | TGI (RPMI-8226 leukemia) | GI50 (HCT-116 colon) | TGI (HCT-116 colon) | GI50 (A498 renal) | TGI (A498 renal) | TGI (SR leukemia) | GI50 (SR leukemia) |
| --- | --- | --- | --- | --- | --- | --- | --- | --- | --- | --- | --- | --- | --- | --- | --- | --- | --- | --- | --- | --- |
| CC(C)c1ccc(Cc2cnc(NC(=O)c3cc(Br)cs3)s2)cc1 | 2.72 µM | 19.4 µM | 3.3 µM | > 100 µM | 1.48 µM | 5.76 µM | 0.436 µM | > 100 µM | 2.44 µM | > 100 µM | 5.89 µM | > 100 µM | 3.6 µM | > 100 µM | 2.98 µM | > 100 µM | 0.242 µM | 4.67 µM | – | – |
| CCC(C)C1NC(=O)C(NC(=O)C(CC(C)C)N(C)C(=O)[C@@H]2CCCN2)C(C)OC(=O)[C@H](Cc2ccc(OC)cc2)N(C)C(=O)[C@@H]2CCCN2C(=O)[C@H](CC(C)C)NC(=O)C(C)C(=O)[C@H](C(C)C)OC(=O)CC1O (some centres undefined) (H-P[ξNMeL][ξT][X4]LP[NMeY](Me); ester 3-C) | – | 0.027 µM and 0.141 µM | – | – | – | 0.00653 µM | – | – | – | 0.00865 µM | – | 0.00314 µM and 0.0195 µM | – | – | – | – | – | 0.0372 µM and 0.15 µM | 7.45 µM | – |
| CC1CC(c2ccccc2)=Nc2ccccc2S1(=O)=O (centres undefined) | – | 47.7 µM | – | 34.9 µM | – | 31 µM | – | 41.9 µM | – | 40.9 µM | – | 31.4 µM | – | 5.59 µM | – | 3.13 µM | – | 28.2 µM | – | – |
| COC(=O)c1c(-c2ccccc2)cc2c3cc(-c4ccccc4)c(C(=O)OC)n3c3ccccc3n12 | – | > 100 µM | – | > 100 µM | – | > 100 µM | – | > 100 µM | – | > 100 µM | – | > 100 µM | – | > 100 µM | – | > 100 µM | – | > 100 µM | – | – |
| O=[N+]([O-])c1c(/C=N/Nc2ccccc2)oc(-c2ccc3c(c2)OCO3)c1-c1ccc2c(c1)OCO2 | – | > 100 µM | – | – | – | > 100 µM | – | 14.5 µM | – | > 100 µM | – | > 100 µM | – | 24.2 µM | – | > 100 µM | – | – | 29.8 µM | – |
| CC1(C)C2CC(c3ccncc3)ON2C(C)(C)N1O (centres undefined) | – | > 100 µM | – | > 100 µM | – | – | – | > 100 µM | – | > 100 µM | – | > 100 µM | – | > 100 µM | – | > 100 µM | – | – | > 100 µM | – |
| CCN(CC)c1ccc(N=Nc2ccc(-c3nc4cccnc4o3)cc2)cc1 | – | > 100 µM | – | – | – | > 100 µM | – | > 100 µM | – | > 100 µM | – | > 100 µM | – | > 100 µM | – | > 100 µM | – | > 100 µM | – | – |
| O=C1C=C(c2c(O)ccc3ccccc23)c2ccccc2C1=O | – | 25.8 µM | – | 26.8 µM | – | – | – | 23.4 µM | – | 16.8 µM | – | 17.2 µM | – | 15.7 µM | – | 8.06 µM | – | 13.4 µM | – | – |
| CCN(CC)CCNc1c(OC)cc(C)c2sc3ccccc3c(=O)c12 | – | 21 µM | – | 18.9 µM | – | 20 µM | – | 4.04 µM | – | 12.1 µM | – | 25.7 µM | – | 3.05 µM | – | 16.3 µM | – | – | 5.33 µM | – |
| O=c1cc(-c2ccccc2)[nH]c2cc(Cl)cc(Cl)c12 | – | > 100 µM | – | > 100 µM | – | > 100 µM | – | > 100 µM | – | > 100 µM | – | > 100 µM | – | > 100 µM | – | > 100 µM | – | – | > 100 µM | – |
| CCN(CC)CCC1CC/C(=C\c2ccc(OC)cc2)C1=O (centres undefined) | – | > 100 µM | – | – | – | > 100 µM | – | > 100 µM | – | > 100 µM | – | > 100 µM | – | > 100 µM | – | > 100 µM | – | > 100 µM | > 100 µM | – |
| CCOc1ccccc1NC(=O)/C=C1\NC(=O)CS1 | – | > 100 µM | – | > 100 µM | – | > 100 µM | – | > 100 µM | – | > 100 µM | – | > 100 µM | – | > 100 µM | – | > 100 µM | – | > 100 µM | – | – |
| CC(=O)CC1CCC(=O)CCC(=O)OC(CC(C)=O)CCC(=O)CCC(=O)O1 (centres undefined) | – | > 100 µM | – | > 100 µM | – | > 100 µM | – | > 100 µM | – | > 100 µM | – | > 100 µM | – | > 100 µM | – | > 100 µM | – | – | – | – |
| Cc1cc2c(CC(=O)O)[nH]nc2c(C(=O)O)c1C | – | > 100 µM | – | > 100 µM | – | – | – | – | – | – | – | > 100 µM | – | > 100 µM | – | > 100 µM | – | – | > 100 µM | – |
| S=C(Nc1ccc(-c2nc3ccccc3[nH]2)cc1)NC1CCCCC1 | 22.8 µM | 80.6 µM | – | – | 12.9 µM | 35.3 µM | 31.5 µM | – | 22.6 µM | 53.3 µM | 33.1 µM | – | 16.6 µM | 90.2 µM | 20.7 µM | 39.5 µM | – | – | 52.5 µM | 10.9 µM |
| C[CH2][Sn]1([CH2]C)[O]C(=O)[O][Sn]([CH2]C)([CH2]C)[O]1 | 18.7 µM | 32.8 µM | > 60.3 µM | > 100 µM | – | – | 13.7 µM | 78.1 µM | 18.8 µM | 33.1 µM | 18.9 µM | 36.6 µM | 17.2 µM | 47.6 µM | > 42.9 µM | > 57.7 µM | 17.7 µM | 32.1 µM | > 100 µM | 30.8 µM |
| Cc1cc2nc3c(=O)n(C)c(=O)nc-3n(-c3ccc(Cl)cc3)c2cc1C | – | 92 µM | – | 10.6 µM | – | – | – | 34.7 µM | – | 13.9 µM | – | 36.7 µM | – | 26.4 µM | – | 33.6 µM | – | 89.8 µM | – | – |
| C=CCn1c(C)nc2cc(Nc3nc(Nc4ccc5nc(C)n(CC=C)c5c4)c4ccccc4n3)ccc21 | 0.78 µM | 2.1 µM | – | – | 1.43 µM | 3.27 µM | – | – | – | – | 1.28 µM | 3.1 µM | 1.24 µM | 3.93 µM | – | – | 1.46 µM | 2.87 µM | – | – |
| CN1CC(c2ccccc2)N(CCCCN2CC(c3ccccc3)N(C)CC2c2ccccc2)CC1c1ccccc1 (centres undefined) | – | > 100 µM | – | > 100 µM | – | – | – | > 100 µM | – | > 100 µM | – | > 100 µM | – | – | – | 24.2 µM | – | > 100 µM | > 100 µM | – |
| COc1cc(C2c3cc4c(cc3[C@@H](Nc3ccc(C(=O)O)cc3)C3COC(=O)[C@H]23)OCO4)cc(OC)c1O (some centres undefined) | – | > 100 µM | – | 17.6 µM and > 17.5 µM | – | – | 14.5 µM and 6.68 µM | > 100 µM | – | 59.9 µM and > 17.5 µM | – | 69.1 µM and > 17.5 µM | 5.7 µM and 2.71 µM | 30.2 µM and 6.54 µM | – | 43.9 µM and > 17.5 µM | – | 68.8 µM and > 17.5 µM | – | – |
| CCOC(=O)CCC(=O)C1c2cccc(O)c2C(=O)c2c(O)cccc21 | – | 4.76 µM | – | 1.4 µM | – | 1.46 µM | – | > 100 µM | – | 1.9 µM | – | – | – | – | – | 2.6 µM | – | – | 7.29 µM | – |
| C=CCNC(=S)N1CC(C)C(=O)Nc2ccccc21 (centres undefined) | – | > 100 µM | – | > 100 µM | – | > 100 µM | – | > 100 µM | – | > 100 µM | – | > 100 µM | – | > 100 µM | – | > 100 µM | – | – | > 100 µM | – |
| Nc1ccc(C(=O)N/C(=C\C=C\c2ccco2)c2nc3[nH]c(=S)[nH]c(=O)c3[nH]2)cc1 | – | > 100 µM | – | – | – | > 100 µM | – | > 100 µM | – | > 100 µM | – | > 100 µM | – | – | – | – | – | – | > 100 µM | – |
